Measured values as given in ChEMBL document CHEMBL1137017, “In vitro antiviral activity and cross-resistance profile of PL-100, a novel protease inhibitor of human immunodeficiency virus type 1” (Antimicrob Agents Chemother, 2007).

Key:
Cathepsin D = Cathepsin D (Homo sapiens, UniProt P07339); assay: Inhibition of human cathepsin D
[1] = Inhibition of pig pepsin; design: species or system Sus scrofa
[2] = target: Protease (Human immunodeficiency virus 1) (UniProt Q9YQ12); assay: Inhibition of HIV1 3B protease-mediated gag polyprotein processing in H9 cells assessed as decrease in p24 level by Western blotting; assay type: cell-based
Chain of Protease (Human immunodeficiency virus 1) (Q9YQ12 as listed by the source): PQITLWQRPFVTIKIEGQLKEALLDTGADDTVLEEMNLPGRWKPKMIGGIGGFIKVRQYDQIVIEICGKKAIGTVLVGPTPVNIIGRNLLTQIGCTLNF

Chain of Cathepsin D (P07339 65-162 limits assumed): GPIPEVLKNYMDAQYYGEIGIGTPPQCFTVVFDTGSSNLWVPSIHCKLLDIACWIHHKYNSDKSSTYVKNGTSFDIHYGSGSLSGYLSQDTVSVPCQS
Chain of Cathepsin D (P07339 169-412 limits assumed): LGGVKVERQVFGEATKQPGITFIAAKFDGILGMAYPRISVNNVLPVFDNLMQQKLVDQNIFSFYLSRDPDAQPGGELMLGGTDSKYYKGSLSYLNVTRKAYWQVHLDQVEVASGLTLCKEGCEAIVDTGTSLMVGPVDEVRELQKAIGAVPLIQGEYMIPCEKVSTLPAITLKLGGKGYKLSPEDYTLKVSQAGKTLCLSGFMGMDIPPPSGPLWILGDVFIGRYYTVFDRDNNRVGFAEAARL

COC(=O)N[C@H](C(=O)NCCCC[C@@H](CO)N(CC(C)C)S(=O)(=O)c1ccc(N)cc1)C(c1ccccc1)c1ccccc1 [PPL-100]
IC50 (Cathepsin D): > 50 µM | IC50 [1]: > 50 µM | Activity [2]: Dose-dependent effect
